From US20110015123A1, “Modulation of GLUT4 Gene Promoter activity BY AHNAK” (Technion Research and Developmet Foundation Ltd., priority 2008, published 2011)
Entries after “also recorded” stand apart in the source; their conditions may differ.

Assays:
[1] = test system: GLUT4 promoter; assay: GLUT4-P-Luc promoter reporter (luciferase) assay in primary rat adipocytes (PRA); format: cell-based
Text: (§1) Expression vectors and luciferase promoter reporters. Expression vectors, pC-DY, pM-DY, and pN-DY, baring the C-terminus, middle domain, and N-terminus of human AHNAK in c-myc-tagged pCDNA3 (Hashimoto, Amagai et al. 1993; Nie, Ning et al. 2000), were a generous gift of Dr. Hashimoto (Department of Dermatology, Kurume University School of Medicine, Kurume, Fukuoka, Japan). The rat GLUT4 promoter (GLUT4-P) reporter and a derived series of progressively 5′-deleted promoter reporters, have been described by us previously (Armoni, Harel et al. 2005). A control synthetic reporter 3×IRS-LUC, containing three repeats of an insulin response element consensus motif in pGL2 was provided by Dr. Eric Tang (Tang, Nunez et al. 1999).
Cell cultures and transient expression assays. […]
(§2) PRA were transfected by electroporation with 2 μg of GLUT4 promoter reporter DNA, 0-5 μg of expression vectors and 0.5 μg of pCMV-β-galactosidase. […] Within each experiment, values were expressed as a percentage of the basal GLUT4 promoter activity, i.e. the activity obtained in cells transfected with promoter reporter alone. Cell viability was assessed by trypan blue exclusion. Each experiment was repeated three to four times, with each sample analyzed in quadruplicates.

[2] = test system: AHNAK; assay: Immunofluorescence of AHNAK cellular distribution in HEK cells; format: cell-based, human; details: serum free medium, 24 hrs, insulin 100 nM alone or with LY 20 μM
Experimental: Immunofluorescence Studies—Human embryonic kidney (HEK) cells were plated in 60 mm plates at a density of 500,000 cells/plate. Cells were incubated for 24 h at 37° C. The next day, cells were washed with magnesium-containing phosphate-buffered saline and transferred to serum-deprived medium supplemented with 2% BSA either with or without Insulin (100 nM). After 24 h, the cells were fixed in 4% paraformaldehyde and stained for indirect immunofluorescence using an anti-AHNAK primary antibody (SC 81048), followed by a FITC-conjugated goat anti-mouse secondary antibody. The nuclei were stained by DAPI.

[3] = test system: insulin response element (3×IRS-LUC); assay: 3×IRS-LUC synthetic promoter reporter assay in PRA; format: cell-based, rat; details: PRA transfected with AHNAK fragments, 24 hrs
Text: as §1, §2

[4] = test system: GLUT4 protein; assay: GLUT4 protein level in PRA by Western immunoblotting; format: cell-based, rat; details: NT-transfected PRA, arachidonic acid 100 μM, 24 hrs
Experimental: AHNAK siRNA. Double-stranded RNAs (dsRNAs) targeting the rat AHNAK were purchased from Dharmacon (Dharmacon, Inc, California, USA). The siRNA (On TARGETplus SMARTpool L-101672-01-0010, Rat Ahnak, XM—574618) used in the experiments is a mixture consisting of the siRNAs of the sequences set forth in SEQ ID NO:1 to SEQ ID NO:8.
PRA were transfected by electroporation with the dsRNA (40 ng in PBS, pH=7.4) as described above. After 24 hrs, cells were harvested and total RNA and protein were obtained. Scrambled non targeting duplex RNA (NT-siRNA) was transfected as control. AHNAK silencing was assessed by QRT-PCR, and normalized to 18S rRNA. GLUT4 expression at protein level was assessed by Western immunoblotting as detailed by us before (Armoni et al., 2002; Armoni et al., 2005).

[5] = test system: GLUT4 promoter; assay: GLUT4-P-Luc promoter reporter (luciferase) assay in H9C2 myotubes; format: cell-based, rat; details: 0-100 μM arachidonic acid, 24 h

Row | effect on AHNAK fragment repression of GLUT4-P ([1]; PRA transfected with AHNAK fragments, 24 hrs) | Molecule | AHNAK subcellular distribution [2] | effect on AHNAK repression of 3×IRS-LUC reporter [3] | effect on transcription from GLUT4-P ([1]; PRA, ambient arachidonic acid levels, 24 h) | decrease in GLUT4 protein levels [4] | effect on transcription from GLUT4-P [5]
1 | partially rescued the activity | insulin: Insulin purchased from SIGMA, Israel | most of it translocates to the cytosel | partially rescued the activity; also recorded: curtailed this repression | – | – | –
2 | – | O=c1cc(N2CCOCC2)oc2c(-c3ccccc3)cccc12 [LY] | AHNAK nuclear re-distribution | – | – | – | –
3 | – | CCCCC/C=C\C/C=C\C/C=C\C/C=C\CCCC(=O)O [arachidonic acid] | – | – | dose-dependently repressed transcription from GLUT4-P | ~40%±3 | dose-dependently repressed transcription from GLUT4-P
